Experimental data published in patent US20150094321A1, “COMBINATION” (GlaxoSmithKline LLC, priority 2009, published 2015).

Assays:
HCC1954 = assay: Cell growth inhibition assay; type: cell-based; conditions: Homo sapiens, HCC1954, HCC1954, breast, HER2+, PIK3CA H1047R; single agent; read-out: IC50 Single Agent (mean +/- std)
Description: (§1) Human breast tumor lines. BT-474, HCC1419, HCC1937, HCC1954, HCC202, KPL-1, MDA-MB-157, MDA-MB-175-VII, MDA-MB-361, MDA-MB-453, SK-BR-3, SUM225PE, UACC893, and ZR-75-1; lung tumor line, CALU-3; and melanoma line, CHL-1, were from ATCC. Human breast tumor line JIMT-1 was from European Collection of Cell Cultures (UK). Human breast tumor lines SUM149PT, SUM190PT and SUM52PE were from Asterand. These lines were cultured in RPMI 1640 medium containing 10% fetal bovine serum (FBS). A head and neck tumor line, LICR LON HN5 (HN5), a gift from the Institute of Cancer Research, Surrey, U.K, was cultured in Dulbecco's modified Eagle medium (DMEM) containing 5% FBS; KPL-4 breast tumor cell line was kindly provided by Dr Junichi Kurebayashi (Kawasaki Medical School, Okayama, Japan) and cultured in DMEM containing 5% FBS. JIMT-1 is a line derived from a patient clinically resistant to trastuzumab (Herceptin®). BT-474-J4 is a single cell clone derived from a pool of BT-474 cells that were selected to grow in lapatinib to a concentration of 3 μM.
(§2) All cells were cultured for a minimum of 72 hours prior to cell plating. Cells were assayed in a 96-well tissue culture plate (NUNC 136102) of RPMI medium containing 10% FBS for all cells at 2,000 cells per well except KPL-4 and HN5 which were plated in DMEM containing 5% FBS at 500 cells per well. Approximately 24 hours after plating, cells were exposed to ten, two-fold or three-fold serial dilutions of compound or the combination of the two agents at a constant molar to molar ratio of 1:1 Compound A to Compound B in RPMI media containing 10% FBS or DMEM containing 5% FBS. Cells were incubated in the presence of compounds for 3 days. ATP levels were determined by adding Cell Titer Glo® (Promega) according to the manufacturer's protocol. Briefly, Cell Titer Glo® was added each plate, incubated for 20 minutes then luminescent signal was read on the SpectraMax L plate reader with a 0.5 sec integration time.
(§3) Inhibition of cell growth was estimated after treatment with compound or combination of compounds for three days and comparing the signal to cells treated with vehicle (DMSO). Cell growth was calculated relative to vehicle (DMSO) treated control wells. Concentration of compound that inhibits 50% of control cell growth (IC50) was interpolated using nonlinear regression with the equation, y=(A+(B−A)/(1+(C/x)̂D))), where A is the minimum response (ymin), B is the maximum response (ymax), C is the inflection point of the curve (EC50) and D is the Hill coefficient. […]

MDA-MB-453 = assay: Cell growth inhibition assay; type: cell-based; conditions: Homo sapiens, MDA-MB-453, MDA-MB-453, breast, HER2+, PIK3CA H1047R; single agent; read-out: IC50 Single Agent (mean +/- std)
Description: as §1, §2, §3

SUM190PT = assay: Cell growth inhibition assay; type: cell-based; conditions: Homo sapiens, breast, HER2+, PIK3CA H1047R, single agent, read-out: IC50 Single Agent (mean +/- std)
Description: as §1, §2, §3

SUM52PE = assay: Cell growth inhibition assay; type: cell-based; conditions: Homo sapiens, breast, FGFR2+, WT, single agent, read-out: IC50 Single Agent (mean +/- std)
Description: as §1, §2, §3

ZR-75-1 = assay: Cell growth inhibition assay; type: cell-based; conditions: Homo sapiens, ZR-75-1, ZR-75-1, breast, PTEN L108R; single agent; read-out: IC50 Single Agent (mean +/- std)
Description: as §1, §2, §3

ASPC1 = assay: Cell line proliferation study; type: cell-based, human; conditions: ASPC1, pancreas; for IC50: Homo sapiens, 72 hours, read-out: gIC50
Description: (§4) In a separate study, combination drug tests with Compounds A and B were conducted using a panel of cell lines from human colon cancers (n=26), lung cancers (n=15) and pancreatic cancers (n=6). Cell lines were obtained from commercial vendors (ATCC and DSMZ). Cell lines were grown in RPMI-1640 supplemented with 2 mM glutamine, 1 mM sodium pyruvate and 10% fetal bovine serum (except for Capan-1 and HuP-T4 which were grown with 20% fetal bovine serum) and maintained at 37° C. and 5% CO2 in a humid incubator. Assays were performed in 384 well microtiter plates with optimum seeding densities for each cell line.
(§5) The test compounds were prepared as 10 mM stocks in 100% DMSO. Further dilutions of the compounds were made in DMSO. Compound A was diluted horizontally in a separate 96 well microtiter plate in rows D-G using a 3-fold dilution series for 10 dilution points. Compound B was similarly diluted horizontally in a 96 well microtiter plate in rows B-E using a 3-fold dilution series for 10 dilution points.
(§6) The two compounds were combined using equal volumes from each drug plate into cell culture media. […] Both Compound A and Compound B were individually titrated in rows B and C (for Compound B) and rows F and G (for Compound A) of the merged drug plate.
(§7) A 1:10 dilution of the drugs was performed in cell culture media prior to addition to the cells.
(§8) The final concentration range for the test compounds was 250 to 0.013 nM for Compound A and 1000 to […] for Compound B. The positive control consisted of culture media with DMSO at 0.1% and cells. The negative control consisted of culture media with DMSO at 0.1%. The cell lines were incubated at 37° C., 5% CO2 in humid air for 72 hours. Cell proliferation was measured using the CellTiter Glo (Promega) reagent according to the manufacturer's protocol. The plates are treated with CellTiter Glo solution and are analyzed for RLU (relative light units) using a Molecular Devices SpectraMax M5 plate reader.
(§9) The percent intensity values were used in model 205 of XLfit (IDBS, Inc.) in Microsoft Excel to calculate gIC50 values using a 4 parameter logistical fit. The midpoint of the growth window (the gIC50) falls half way between the number of cells at the time of compound addition (T=0) and the growth of control cells treated with DMSO at 72 hrs. The number of cells at time zero (T0) is divided from the intensity value at the bottom of the response curve (Ymin) to generate a measure for cell death (Ymin/T0). A value below 1 for Ymin/T0 indicates stronger potency to induce cell death with the treatment when compared to higher values. […]

Calu6 = assay: Cell line proliferation study; type: cell-based, human; conditions: Calu6, lung; for IC50: Homo sapiens, Calu-6, 72 hours, read-out: gIC50
Description: as §4, §5, §6, §7, §8, §9

NCIH460 = assay: Cell line proliferation study; type: cell-based, human; conditions: NCIH460, lung; for IC50: Homo sapiens, NCI-H460, 72 hours, read-out: gIC50
Description: as §4, §5, §6, §7, §8, §9

SW1417 = assay: Cell line proliferation study; type: cell-based, human; conditions: SW1417, colon; for IC50: Homo sapiens, 72 hours, read-out: gIC50
Description: as §4, §5, §6, §7, §8, §9

IC50 (HCC1954) | IC50 (MDA-MB-453) | IC50 (ASPC1) | IC50 (Calu6) | IC50 (SW1417) | Compound | IC50 (SUM190PT) | IC50 (SUM52PE) | IC50 (ZR-75-1) | Ymin/T0 (ASPC1) | Ymin/T0 (Calu6) | IC50 (NCIH460) | Ymin/T0 (NCIH460) | Ymin/T0 (SW1417)
> 1000 nM | > 1000 nM | 19.7 nM | 53.1 nM | 2.86 nM | CC(=O)Nc1cccc(-n2c(=O)n(C3CC3)c(=O)c3c(Nc4ccc(I)cc4F)n(C)c(=O)c(C)c32)c1 [Compound A, N-{3-[3-cyclopropyl-5-(2-fluoro-4-iodo-phenylamino)-6,8-dimethyl-2,4,7-trioxo-3,4,6,7-tetrahydro-2H-pyrido[4,3-d]pyrimidin-1-yl]phenyl}acetamide] | > 1000 nM | > 1000 nM | > 1000 nM | 13.6 | 15.0 | 63 nM | 39.1 | 16.19
– | – | > 1000 nM | > 1000 nM | > 1000 nM | Cn1ncc(Cl)c1-c1cc(C(=O)N[C@H](CN)Cc2ccc(F)c(F)c2)oc1Cl [Compound B, N-{(1S)-2-amino-1-[(3,4-difluorophenyl)methyl]ethyl}-5-chloro-4-(4-chloro-1-methyl-1H-pyrazol-5-yl)-2-furancarboxamide] | – | – | – | 42.9 | 56.3 | 664 nM | 20.8 | 3.63
